In patent publication US10071103B2, “Treatments for resistant acne” (VYOME BIOSCIENCES PVT. LTD., priority 2014, dated 2018):
Values after ≈ are worked out from the molar mass of the structure shown. “Also recorded” adds a separate entry of the source. Counter-ions that a name gives are not always drawn.

Legend:
IL-6 = assay: P. acnes-induced IL-6 release in THP-1 cells (ELISA); type: cell-based
Method: (§1) Method: Preparation of Stimulant for Inflammation: P. acnes culture suspension was prepared in PBS and the cell number in the suspension was adjusted to approximately 5×10^8 CFU/ml by measuring the cell density using a Densimat. The bacterial suspension was then heat killed at 80° C. for 30 min and stored at −80° C. until further use.
(§2) Cells were seeded in a 96-well format (2×10^5 THP-1 cells per well) in media containing 10% FBS. The cells were stimulated to induce inflammatory cytokines using 3 McFarland equivalent heat-killed P. acnes. Cells in control wells were treated with PBS. One hour after induction with P. acnes, test agents were added to the induced cells at appropriate concentrations to be tested (compound 91 at 25 μg/ml). The plates were incubated at 37° C. for 24 hours. After 24 h, the plates were centrifuged to pellet the cells and the supernatants were collected. The cell culture supernatants thus obtained were analyzed for levels of cytokines (IL-1α, IL-1β, IL-6 and IL-8) by ELISA using R&D Systems kits for individual cytokines following the manufacturer's instructions.
as §1, with “Preparation” for “Method: Preparation”, “stimulant” for “Stimulant”, “inflammation:” for “Inflammation:”
(§3) Cells were seeded in a 96-well format (2×10^5 THP-1 cells per well) in media containing 10% FBS. The cells were stimulated to induce inflammatory cytokines using 3 McFarland equivalent heat-killed P. acnes. Cells in control wells were treated with PBS. One hour after induction with P. acnes, test agents were added to the induced cells at appropriate concentrations (Besifloxacin at 10 and 30 μg/ml; Adapalene at 0.04 and 0.4 μg/ml). The plates were incubated at 37° C. for 24 hours. After 24 h, the plates were centrifuged to pellet the cells and the supernatants were collected. The cell culture supernatants thus obtained were analyzed for cytokine levels (IL-6 and IL-8) by ELISA using R&D Systems kits for individual cytokines following the manufacturer's instructions.

IL-8 = assay: P. acnes-induced IL-8 release in THP-1 cells (ELISA); type: cell-based
Method: as §1, §2
as §1, with “Preparation” for “Method: Preparation”, “stimulant” for “Stimulant”, “inflammation:” for “Inflammation:”
as §3

THP-1 cells = assay: Viability of THP-1 cells under treatment; type: cell-based; details: Example 61; each tested condition
[1] = pH dependent solubility of besifloxacin.HCl; type: physicochemical; details: pH of about 4.5 or below solubilizes the drug
Text: Preparation of drug-loaded (suspended form) gel via a conventional method usually leads to exposure of the drug to a wide range of pH conditions, which may lead to, in some instances, solubilization of the drug, and then reprecipitation. This solubilization-reprecipitation phenomenon in most cases leads to change in original particle size, impurity profile or crystal pattern, or others. […] The solubilized besifloxacin then, upon increase in pH (during formulation preparation), reprecipitates, which may result in one or more unwanted changes.

P. acnes MTCC 1951 = assay: MIC by micro broth dilution (Alamar blue), clindamycin-susceptible P. acnes; type: cell-based, Propionibacterium acnes; details: for MIC: Cutibacterium acnes, MTCC1951, read-out: MIC Susceptible P. acnes (1951) strain; for Activity / bacterial killing, dose response curve (in words): clindamycin-susceptible MTCC 1951
Method: (§4) The plates were incubated at 37° C. for 48 h under anaerobic condition for P. acnes and 37° C. for 24 h for S. aureus The plates were read under Bio-Rad plate reader at 595 nm for optical density to generate the dose-response curves. The MIC of the test compound was recorded by addition of Alamar blue dye.
(§5) P. acnes (MTCC 3297, MTCC 1951& CCARM 9010) are cultured in Brain Heart Infusion (BHI) Broth at 37° C. for 48-72 h under anaerobic condition. The test compounds/formulations are initially diluted with suitable solvent and further diluted with BHI broth to get the required concentrations. Samples (100 μl) of different concentrations (prepared by serial dilution) are added to 96-well plate. To the wells, 100 μl of P. acnes BHI broth culture is added [culture turbidity adjusted against 0.5 McFarland standard (approx 1.5×10^8), and further diluted 100-fold with sterile BHI broth]. In addition Growth Control and Sterility Control are created using 100 μl each of P. acnes BHI broth culture and plain BHI broth, respectively.
(§6) Plates are incubated at 37° C. for 48-72 hrs under anaerobic condition. The plate is read under Bio-Rad plate reader @ 595 nm for optical density to generate the dose-response curves. The MIC of the test compound is recorded by addition of Alamar blue dye.
BHI broth and BHI agar media were prepared as per the manufacturer's instruction and autoclaved at 121° C. for 15 minutes. […] For MIC determination testing, gels are dissolved in the solvent and further diluted with BHI broth. Then, 96 wells plate are filled with 100 μl of BHI broth containing drug with different concentration to get the final concentrations of 0.06, 0.13, 0.25, 0.5, 1 and 2 μg/ml in different lanes (lane 1 to lane 6). Remaining lanes of the 96 well plate are used as growth control and sterility control. Finally, P. acnes culture suspension (approx 1.5×10^6) is added in all the wells except sterility control wells and plate is incubated at 37° C. for 48-72 h under anaerobic condition. At the end of 72 h, Alamar blue solution (20 μl) is added into the wells and incubated at 37° C. for 2 h. Plate is visualized for bacterial inhibitions and MIC values of the tested samples are determined. […]

P. acnes CCARM 9010 = assay: MIC by micro broth dilution (Alamar blue), clindamycin-resistant/nonresponsive P. acnes; type: cell-based, Propionibacterium acnes; details: for MIC: Cutibacterium acnes, CCARM9010, read-out: MIC Resistant P. acnes (9010) strain; for Activity / bacterial killing, dose response curve (in words): clindamycin-nonresponsive CCARM 9010
Method: as §4, §5, §6

S. aureus MTCC 6908 = assay: MIC by micro broth dilution, laboratory S. aureus strain; type: cell-based, Staphylococcus aureus; details: for MIC: Staphylococcus aureus, MTCC6908, Table 6, read-out: MIC Susceptible S. aureus (6908) strain
Method: as §4
S. aureus MTCC 6908 were grown in Tryptone Soya Agar (TSA) at 37° C. for 24 hours. […] Plates were incubated at 37° C. for 24 hours. […] (2) Zone of Inhibition (ZOI): S. aureus MTCC 6908 were grown in Tryptone Soya Agar (TSA) at 37° C. for 24 hours. BHA plates are spreaded with 100 μl of 0.5 McFarland standard equal bacterial suspension. Test samples (drugs/formulations) were dissolved in water/solvent based on the solubility. Sterile disc (6 mm) were loaded with 10 μl of test samples (of various concentration of drug), and were placed above the spreaded plates. Plates were incubated at 37 C for 24 h, followed by ZOI measurement. (3) Time Kill Assay: 0.5 McFarland standard equal S. aureus culture was prepared in sterile water. Besifloxacin gels were diluted in Tryptone Soya broth (TSB) to get final concentration of 25 μg/ml. Then 900 μl of S. aureus 0.5 McFarland standard equal culture and 100 μl of diluted Besifloxacin gel was mixed to obtain final Besifloxacin concentration, 2.5 μl g/ml. Total reaction mixture (1 ml) was incubated at 37° C. in a tube rotator. After 2 and 6 h exposure, bacterial suspension was placed on Tryptone soya agar plate and incubated at 37° C. for 24 h.
Inoculated plates were incubated at 37° C. for 24 hours.

E. coli DNA gyrase = molecular target: T1, E. coli DNA gyrase (Escherichia coli, UniProt P0AES4+P0AES6); assay: DNA gyrase super-coiling activity assay (Topogen kit, relaxed pHOT1 plasmid); type: biochemical; details: 1 μM and 2.5 μM
T1 construct: purchased Topogen Inc
T1 sequence (P0AES4 whole entry, one chain of several): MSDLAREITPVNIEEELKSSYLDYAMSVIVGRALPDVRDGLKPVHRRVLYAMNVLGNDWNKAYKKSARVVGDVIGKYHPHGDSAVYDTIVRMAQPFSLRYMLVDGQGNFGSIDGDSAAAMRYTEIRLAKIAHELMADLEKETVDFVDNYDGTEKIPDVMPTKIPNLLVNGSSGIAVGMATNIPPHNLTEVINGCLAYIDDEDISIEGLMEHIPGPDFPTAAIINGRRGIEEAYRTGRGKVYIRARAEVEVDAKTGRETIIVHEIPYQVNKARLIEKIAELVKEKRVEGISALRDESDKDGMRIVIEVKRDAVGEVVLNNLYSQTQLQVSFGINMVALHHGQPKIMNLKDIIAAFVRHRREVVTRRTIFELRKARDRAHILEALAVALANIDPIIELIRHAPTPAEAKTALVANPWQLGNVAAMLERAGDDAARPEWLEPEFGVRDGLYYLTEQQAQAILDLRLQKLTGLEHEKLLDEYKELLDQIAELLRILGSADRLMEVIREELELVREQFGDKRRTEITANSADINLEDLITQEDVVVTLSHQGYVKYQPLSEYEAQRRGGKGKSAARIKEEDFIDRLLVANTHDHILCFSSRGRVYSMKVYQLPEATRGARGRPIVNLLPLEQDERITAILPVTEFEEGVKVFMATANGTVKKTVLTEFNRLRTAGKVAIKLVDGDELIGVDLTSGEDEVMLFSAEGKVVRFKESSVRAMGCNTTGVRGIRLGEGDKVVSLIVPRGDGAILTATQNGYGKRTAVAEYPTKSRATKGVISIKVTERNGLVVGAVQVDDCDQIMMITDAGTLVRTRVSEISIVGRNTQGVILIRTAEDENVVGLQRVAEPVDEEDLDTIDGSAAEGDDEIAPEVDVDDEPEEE
Method: DNA super-coiling activity was assayed using DNA gyrase assay kit (Topogen Inc.) with relaxed pHOT1 E. coli plasmid DNA according to manufacturer's protocol. The standard reaction mixture (20 μl) contained 35 mM Tris-HCl (pH 7.5), 24 mM KCl, 4 mM MgCl2, 2 mM dithiothreitol, 1.8 mM spermidine, 1 mM ATP, 6.5% glycerol, 0.1 mg/ml bovine serum albumin (BSA), 10 μg/ml relaxed pHOT1 plasmid DNA and 1 U of DNA gyrase. The reaction mixture was incubated at 37° C. for 1 h in presence of selected compounds/fluoroquinolone at different concentrations. The reaction was terminated by addition of ⅕ volume of loading dye (4 μl) followed by proteinase K (50 μg/ml) and again incubated at 37° C. for half an hour. 20 μl chloroform/isoamyl alcohol (24:1) was added to each tube and vortexed briefly. Thereafter, the blue aqueous phase was separated out and analyzed by 1% agarose gel electrophoresis. The gel was stained by ethidium bromide for half an hour and destained with water for 15 mins. The gel was then visualized in a trans-illuminator and photographed.

IL-1α = assay: P. acnes-induced IL-1α release in THP-1 cells (ELISA); type: cell-based; details: 25 μg/ml, 100% = P. acnes induced cells
Method: as §1, §2

IL-1β = assay: P. acnes-induced IL-1β release in THP-1 cells (ELISA); type: cell-based; details: 25 μg/ml, 100% = P. acnes induced cells
Method: as §1, §2

[2] = 25 μg/ml, THP-1 cells, 100% = P. acnes induced cells
[3] = Cells + P. acnes + 0.4 μg/ml (positive control), THP-1 cells, 24 h, Table 70
[4] = Cells + P. acnes + Dexamethasone 0.4 μg/ml, THP-1 cells, Table 71

| Structure (SMILES) | MIC (P. acnes MTCC 1951) | Activity / bacterial killing, dose response curve (in words) (P. acnes MTCC 1951) | MIC (P. acnes CCARM 9010) | Activity / bacterial killing, dose response curve (in words) (P. acnes CCARM 9010) | MIC (S. aureus MTCC 6908) | Inhibition of super-coiling activity of DNA gyrase (in words) (E. coli DNA gyrase) | further results |
| --- | --- | --- | --- | --- | --- | --- | --- |
| N[C@@H]1CCCCN(c2c(F)cc3c(=O)c(C(=O)O)cn(C4CC4)c3c2Cl)C1 [Besifloxacin.HCl, besifloxacin hydrochloride] | – | – | – | – | – | – | Effect on P. acnes-induced IL-6 levels (in words) (IL-6; Example 61, besifloxacin 10, 30 μg/ml, adapalene 0.04, 0.4 μg/ml, hydrochloride): significant dose-dependent decrease; also recorded: impart individual anti-inflammatory effects; Reduction in IL-6 levels compared to untreated control (IL-6; besifloxacin.HCl alone at 10 μg/ml): approximately 40%; Effect on P. acnes-induced IL-8 levels (in words) (IL-8; Example 61, besifloxacin 10, 30 μg/ml, adapalene 0.04, 0.4 μg/ml): does not show similar effect; Cell viability compared to untreated cells (THP-1 cells): over 80%; Solubility (in words) [1]: pH dependent solubility |
| Cc1oc(=O)oc1CN1CCN(c2cc3c(cc2F)c(=O)c(C(=O)OC(CCl)Cn2c([N+](=O)[O-])cnc2C)c2n3C(C)S2)CC1 (stereo not drawn) [Compound 94, 6-Fluoro-1-methyl-7-[4-(5-methyl-2-oxo-[1,3]dioxol-4-ylmethyl)-piperazin-1-yl]-4-oxo-4H-2-thia-8b-aza-cyclobuta[a]naphthalene-3-carboxylic acid 1-chloromethyl-2-(2-methyl-5-nitro-imidazol-1-yl)-ethyl ester] | 3 µg/mL (≈ 4.52 µM) | hardly showed any activity | 3 µg/mL (≈ 4.52 µM) | hardly showed any activity | 2.8 µg/mL (≈ 4.22 µM) | able to inhibit the super-coiling activity | – |
| CCCCCCCCCCCC(=O)OC(CN1CCN(c2cc3c(cc2F)c(=O)c(C(=O)O)c2n3C(C)S2)CC1)Cn1c([N+](=O)[O-])cnc1C (stereo not drawn) [Compound 113, 7-{4-[2-Dodecanoyloxy-3-(2-methyl-5-nitro-imidazol-1-yl)-propyl]-piperazin-1-yl}-6-fluoro-1-methyl-4-oxo-4H-2-thia-8b-aza-cyclobuta[a]naphthalene-3-carboxylic acid] | 8.2 µg/mL (≈ 11.5 µM) | hardly showed any activity | 8 µg/mL (≈ 11.2 µM) | hardly showed any activity | > 8.2 µg/mL | able to inhibit the super-coiling activity | Activity against S. aureus strain (in words) (S. aureus MTCC 6908): least activities |
| Cc1ncc([N+](=O)[O-])n1CC(O)CCCCN1CCN(c2cc3c(cc2F)c(=O)c(C(=O)O)c2n3C(C)S2)CC1 (stereo not drawn) [Compound 115, 6-Fluoro-7-{4-[5-hydroxy-6-(2-methyl-5-nitro-imidazol-1-yl)-hexyl]-piperazin-1-yl}-1-methyl-4-oxo-4H-2-thia-8b-aza-cyclobuta[a]naphthalene-3-carboxylic acid] | 0.4 µg/mL (≈ 0.696 µM) | more than double MIC values | 0.8 µg/mL (≈ 1.39 µM) | more than double MIC values | 1.6 µg/mL (≈ 2.78 µM) | able to inhibit the super-coiling activity | – |
| Cc1ncc([N+](=O)[O-])n1CC(O)CCN1CCN(c2cc3c(cc2F)c(=O)c(C(=O)O)c2n3C(C)S2)CC1 (stereo not drawn) [Compound 116, 6-Fluoro-7-{4-[3-hydroxy-4-(2-methyl-5-nitro-imidazol-1-yl)-butyl]-piperazin-1-yl}-1-methyl-4-oxo-4H-2-thia-8b-aza-cyclobuta[a]naphthalene-3-carboxylic acid] | 0.4 µg/mL (≈ 0.732 µM) | more than double MIC values | 0.8 µg/mL (≈ 1.46 µM) | more than double MIC values | 1.64 µg/mL (≈ 3 µM) | able to inhibit the super-coiling activity; also recorded: highly potent; also recorded: best gyrase inhibiting activity | – |
| C[C@@H]1C[C@H]2[C@@H]3CCC4=CC(=O)C=C[C@]4(C)[C@@]3(F)[C@@H](O)C[C@]2(C)[C@@]1(O)C(=O)CO [Dexamethasone] | – | – | – | – | – | – | Percentage reduction in P. acnes induced IL-6 release (IL-6; [2]): 99.54%; Expression of Cytokines IL-6 (pg/ml) Mean (IL-6; [3]): 2.15 pg/mL; Expression of Cytokines IL-6 (pg/ml) Mean (IL-6; [4]): 2.15 pg/mL; Reduction in IL-6 levels (IL-6; Example 61, positive control): ~100%; Percentage reduction in P. acnes induced IL-8 release (IL-8; [2]): 58.78%; Expression of Cytokines IL-8 (pg/ml) Mean (IL-8; [3]): 1080.8 pg/mL; Expression of Cytokines IL-8 (pg/ml) Mean (IL-8; [4]): 1080.76 pg/mL; Percentage reduction in P. acnes induced IL-1α release (IL-1α): 53.83%; Percentage reduction in P. acnes induced IL-1β release (IL-1β): 64.73% |
